Entries after “also recorded” stand apart in the source; their conditions may differ.
What was measured:
Type in all cases: cell-based
TetR = target: T1, TetR (Escherichia coli, UniProt P04483); experiment: Recovery of GFPuv fluorescence in E. coli DH5α containing pSH3-KF; conditions: saturating ATC
T1 construct: expressed in transfected cells; host or cells: E. coli DH5α transformed with pSH3-KF (tetR amplified from pSR26_2)
Protocol: (§1) All cell density and fluorescence measurements were taken in triplicate. 96-well culture plates (1 mL LB per well) with appropriate concentrations of necessary antibiotics and aminoglycoside were inoculated 1:100 from a saturated overnight liquid culture and allowed to grow for 48 hours at 37° C., 200 rpm shaking. For cell density assays, 40 μL of sample was taken from each well, diluted 5-fold, and OD600 was measured by microplate reader. The OD600 of the original culture was calculated by multiplying the reading by the dilution factor (Melançon et al., 2009, Bioorg. Med. Chem. Lett. 19:3845-3847). For cell pellet fluorescence imaging, cells were pelleted by centrifugation (4,000×g, 15 minutes, 4° C.) and the supernatant was decanted completely. […] For fluorescence quantification, cell pellets were resuspended in 1 mL of ¼×Ringer's solution (30.75 mM NaCl, 1.2 mM, KCl, 1.5 mM CaCl2, pH 7.3-7.4), 200 μL of cells from each well were transferred to black 96-well plates, and GFP fluorescence was measured (excitation=395 nm, bandwidth=9 nm; emission=509 nm, bandwidth=15 nm). Fluorescence intensities were calculated as fluorescence/OD600 of the sample minus fluorescence/OD600 of a sample of a non-GFP-expressing E. coli strain parental to the strain being analyzed in order to correct for both cell density and E. coli auto-fluorescence. […]

O-ribosome [1] = experiment: O-ribosome inhibition fluorescence assay in E. coli SH399 (pSH6-KF, pRRSH2-A1408G); conditions: for detection of O-ribosome inhibition (fluorescence signal): E. coli SH399, A1408G 16S rRNA, aminoglycoside 0-500 μM, 48 h; for dose-dependent fluorescence response pattern: E. coli SH399, increasing aminoglycoside concentrations; for relative ribosome inhibition activity (rank among ten compounds) / fluorescence at drug concentrations beyond those that give the peak response: E. coli SH399; for relative ribosome inhibition activity (rank among ten compounds): printed order: sisomicin, gentamicins, neomycin B, paromomycin, tobramycin, amikacin, ribostamycin, apramycin, kanamycin A, neamine
Protocol: (§2) All cell density and fluorescence measurements were taken in triplicate. 96-well culture plates (1 mL LB per well) with appropriate concentrations of necessary antibiotics and aminoglycoside were inoculated 1:100 from a saturated overnight liquid culture and allowed to grow for 48 hours at 37° C., 200 rpm shaking. For cell density assays, 40 μL of sample was taken from each well, diluted 5-fold, and OD600 was measured by microplate reader. The OD600 of the original culture was calculated by multiplying the reading by the dilution factor (Melançon et al., 2009, Bioorg. Med. Chem. Lett. 19:3845-3847). For cell pellet fluorescence imaging, cells were pelleted by centrifugation (4,000×g, 15 minutes, 4° C.) and the supernatant was decanted completely. The underside of the plate was illuminated at 365 nm using an ultraviolet handheld lamp and photgraphed with an 8 megapixel digital camera. For fluorescence quantification, cell pellets were resuspended in 1 mL of ¼×Ringer's solution (30.75 mM NaCl, 1.2 mM, KCl, 1.5 mM CaCl2, pH 7.3-7.4), 200 μL of cells from each well were transferred to black 96-well plates, and GFP fluorescence was measured (excitation=395 nm, bandwidth=9 nm; emission=509 nm, bandwidth=15 nm). Fluorescence intensities were calculated as fluorescence/OD600 of the sample minus fluorescence/OD600 of a sample of a non-GFP-expressing E. coli strain parental to the strain being analyzed in order to correct for both cell density and E. coli auto-fluorescence.
Dose-dependent fluorescence responses by E. coli SH399 was observed when treated with five of these compounds as determined by plate reader fluorescence assays (see section 1.6 for experimental details). (FIG. 4A and FIG. 20).

O-ribosome [2] = experiment: O-ribosome inhibition fluorescence assay in E. coli SH431 (pSH6-KF, pRRSH2-U1406A); conditions: for detection of O-ribosome inhibition (fluorescence signal): E. coli SH431, U1406A 16S rRNA, aminoglycoside 0-500 μM; for relative potency as ribosome inhibitor (rank among four compounds): printed order: gentamicins, G418 and hygromycin B, kanamycin A
Protocol: as §2
(§3) To extend the approach to a system with a different aminoglycoside resistance mutation, prrnC-sacB was replaced with pRRSH2-U1406A (see Section 2.2.2 for vector construction) in E. coli SQ380 (E. coli SH424), which was then transformed with pSH6-KF, resulting in the detection strain E. coli SH431. E. coli SH431 was used to conduct ribosome inhibition assays identical to those performed with E. coli SH399. Dose-dependent fluorescence responses by E. coli SH431 were observed when treated with four of these compounds as determined by plate reader fluorescence assays (see section 1.6 for experimental details), including two to which E. coli SH399 was not resistant and therefore could not produce a response. (FIG. 4B and FIG. 20).

E. coli SH431 = experiment: Cell density (OD600) growth assay of E. coli SH431
Protocol: as §2
as §3, with “E. coli SH431 was used to conduct ribosome inhibition assays identical to those performed with E. coli SH399.” left out, “(FIG. 4B and FIG. 20).” left out

O-ribosome [3] = experiment: Ribosome inhibition fluorescence assay in E. coli SH391 (SH386 with pSH3-KF); conditions: E. coli SH391, kanamycin 0-500 μM
Protocol: All cell density and fluorescence measurements were taken in triplicate. 96-well culture plates (1 mL LB per well) with appropriate concentrations of necessary antibiotics and aminoglycoside were inoculated 1:100 from a saturated overnight liquid culture and allowed to grow for 48 hours at 37° C., 200 rpm shaking. For cell density assays, 40 μL of sample was taken from each well, diluted 5-fold, and OD600 was measured by microplate reader. The OD600 of the original culture was calculated by multiplying the reading by the dilution factor (Melançon et al., 2009, Bioorg. Med. Chem. Lett. 19:3845-3847). For cell pellet fluorescence imaging, cells were pelleted by centrifugation (4,000×g, 15 minutes, 4° C.) and the supernatant was decanted completely. […] For fluorescence quantification, cell pellets were resuspended in 1 mL of ¼×Ringer's solution (30.75 mM NaCl, 1.2 mM, KCl, 1.5 mM CaCl2, pH 7.3-7.4), 200 μL of cells from each well were transferred to black 96-well plates, and GFP fluorescence was measured (excitation=395 nm, bandwidth=9 nm; emission=509 nm, bandwidth=15 nm). Fluorescence intensities were calculated as fluorescence/OD600 of the sample minus fluorescence/OD600 of a sample of a non-GFP-expressing E. coli strain parental to the strain being analyzed in order to correct for both cell density and E. coli auto-fluorescence.

E. coli SH430 = experiment: Cell viability (OD600) assay of E. coli SH430 (pRRSH2, wild-type 16S rRNA)
Text: (§4) E. coli SQ380 was transformed with pRRSH2-A1408G; and prrnC-sacB was removed by sucrose counterselection, resulting in E. coli SH386. As a control, E. coli SQ380 was also transformed with pRRSH2; and prrnC-sacB was removed by sucrose counterselection, resulting in E. coli SH430.

E. coli SH386 = experiment: Cell viability (OD600) assay of E. coli SH386 (pRRSH2-A1408G)
Text: as §4

E. coli SH434 = experiment: Growth inhibition assay of aminoglycoside-sensitive E. coli SH434 (pSH6-KF, pRRSH2)
Protocol: as §1

E. coli SH399 = experiment: Cell density (OD600) growth assay of E. coli SH399; conditions: E. coli SH399, concentrations beyond peak fluorescence response
Protocol: as §1

T1 sequence (P04483 whole entry): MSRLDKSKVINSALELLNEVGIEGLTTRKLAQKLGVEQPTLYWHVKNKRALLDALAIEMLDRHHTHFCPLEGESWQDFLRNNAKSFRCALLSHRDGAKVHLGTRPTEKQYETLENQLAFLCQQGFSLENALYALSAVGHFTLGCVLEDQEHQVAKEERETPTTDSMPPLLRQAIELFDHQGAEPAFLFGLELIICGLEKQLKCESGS

Q: For `Cc1c2c(c(O)c3c(O)cccc13)C(=O)[C@]1(O)C(=O)C(C(N)=O)=C(O)[C@@H](N(C)C)[C@@H]1C2` [anhydrotetracycline], which “fluorescence level relative to the gfp-uv/tetR-expressing strain” value (TetR) is on record?
A: 106.6%±1.2%

Q: What does the source list for `CN[C@@H]1[C@@H](O[C@H]2O[C@H](CO)[C@@H](N)[C@H](O)[C@H]2O)OC2C[C@@H](N)[C@@H](O[C@H]3[C@H](O)[C@@H](O)[C@H](N)C[C@@H]3N)OC2[C@@H]1O` (stereo partly drawn) [apramycin]?
A: detection of O-ribosome inhibition (fluorescence signal) (O-ribosome [1]): able to detect O-ribosome inhibition; dose-dependent fluorescence response pattern (O-ribosome [1]): more gradual dose-dependent fluorescence increases; detection of O-ribosome inhibition (fluorescence signal) (O-ribosome [2]): lack of signal; resistance of SH431 conferred by the U1406A mutation (E. coli SH431): inability of the U1406A mutation to confer resistance

Q: For `NC[C@H]1O[C@H](O[C@H]2[C@H](O)[C@@H](O[C@H]3O[C@H](CO)[C@@H](O)[C@H](N)[C@H]3O)[C@H](N)C[C@@H]2N)[C@H](O)[C@@H](O)[C@@H]1O` [kanamycin, kanamycin A], which “detection of O-ribosome inhibition (fluorescence signal)” value (shortened to “detection of O-ribosome inhibition”) (O-ribosome [1]) is on record?
A: able to detect O-ribosome inhibition

Q: And the “dose-dependent fluorescence response pattern” value (O-ribosome [1])?
A: robust dose-dependent increase in fluorescence; also recorded: more gradual dose-dependent fluorescence increases

Q: What about the “detection of O-ribosome inhibition” value (O-ribosome [2]) of the same molecule?
A: able to detect O-ribosome inhibition

Q: What about the “relative potency as ribosome inhibitor (rank among four compounds)” value (O-ribosome [2]; E. coli SH431) of the same molecule?
A: least potent

Q: What about the increase in fluorescence (O-ribosome [3]) of the same molecule?
A: ~50%

Q: What about the “maximum induction of fluorescence” value (O-ribosome [3]; strong background fluorescence) of the same molecule?
A: 1.6 fold

Q: What about the growth inhibition (E. coli SH430; E. coli SH430, 10 μM kanamycin, 24 hours) of the same molecule?
A: significant growth inhibition

Q: And the “concentrations at which the strain cannot survive” value (E. coli SH430; E. coli SH430, 24 hours)?
A: above 10 μM

Q: And the “concentration up to which the strain is resistant (highest concentration tested)” value (E. coli SH386; E. coli SH386, A1408G)?
A: up to 500 μM

Q: And the growth inhibition (E. coli SH386; E. coli SH386, any kanamycin concentration tested (up to 500 μM), 24 hours)?
A: no growth inhibition

Q: What does the source list for `NC[C@H]1O[C@H](O[C@H]2[C@H](O)[C@@H](O)[C@H](N)C[C@@H]2N)[C@H](N)[C@@H](O)[C@@H]1O` [neamine]?
A: relative ribosome inhibition activity (rank among ten compounds) (O-ribosome [1]; listed as Neamine): very weak; growth inhibition activity (E. coli SH434): very weak

Q: What does the source list for `NC[C@@H]1O[C@H](O[C@H]2[C@@H](O)[C@H](O[C@@H]3[C@@H](O)[C@H](N)C[C@H](N)[C@H]3O[C@H]3O[C@H](CN)[C@@H](O)[C@H](O)[C@H]3N)O[C@@H]2CO)[C@H](N)[C@@H](O)[C@@H]1O` [neomycin, neomycin B]?
A: fluorescence at drug concentrations beyond those that give the peak response (O-ribosome [1]): fluorescence decreases significantly; detection of O-ribosome inhibition (fluorescence signal) (O-ribosome [1]): able to detect O-ribosome inhibition; dose-dependent fluorescence response pattern (O-ribosome [1]): robust fluorescence responses at low concentrations; detection of O-ribosome inhibition (fluorescence signal) (O-ribosome [2]): lack of signal; resistance of SH431 conferred by the U1406A mutation (E. coli SH431): inability of the U1406A mutation to confer resistance

Q: For `NC[C@@H]1O[C@H](O[C@H]2[C@@H](O)[C@H](O[C@@H]3[C@@H](O)[C@H](N)C[C@H](N)[C@H]3O[C@H]3O[C@H](CO)[C@@H](O)[C@H](O)[C@H]3N)O[C@@H]2CO)[C@H](N)[C@@H](O)[C@@H]1O` [paromomycin], which “fluorescence at drug concentrations beyond those that give the peak response” value (O-ribosome [1]) is on record?
A: fluorescence decreases significantly

Q: And the “detection of O-ribosome inhibition” value (O-ribosome [1])?
A: able to detect O-ribosome inhibition

Q: And the “dose-dependent fluorescence response pattern” value (O-ribosome [1])?
A: robust fluorescence responses at low concentrations

Q: What about the “detection of O-ribosome inhibition” value (O-ribosome [2]) of the same molecule?
A: lack of signal

Q: And the “growth inhibition accompanying the decrease in fluorescence” value (E. coli SH399)?
A: accompanied by growth inhibition

Q: And the “resistance of SH431 conferred by the U1406A mutation” value (E. coli SH431)?
A: inability of the U1406A mutation to confer resistance

Q: With `CN[C@@H]1[C@@H](O)[C@@H](O[C@@H]2[C@@H](O)[C@H](O[C@H]3OC(CN)=CC[C@H]3N)[C@@H](N)C[C@H]2N)OC[C@]1(C)O` [sisomicin] as the molecule, how does the “relative ribosome inhibition activity (rank among ten compounds)” value (O-ribosome [1]) read?
A: strongest ribosome inhibition activity

Q: gentamicin [gentamicins] was tested. Which “fluorescence at drug concentrations beyond those that give the peak response” value (O-ribosome [1]) did it give?
A: fluorescence decreases significantly

Q: What about the “detection of O-ribosome inhibition” value (O-ribosome [1]) of the same molecule?
A: able to detect O-ribosome inhibition

Q: And the “dose-dependent fluorescence response pattern” value (O-ribosome [1])?
A: robust fluorescence responses at low concentrations

Q: And the “response at higher concentrations” value (O-ribosome [2]; E. coli SH431)?
A: Dose-dependent decreases in response

Q: What about the “detection of O-ribosome inhibition” value (O-ribosome [2]) of the same molecule?
A: able to detect O-ribosome inhibition

Q: What about the “relative potency as ribosome inhibitor (rank among four compounds)” value (O-ribosome [2]; E. coli SH431) of the same molecule?
A: most potent ribosome inhibitors

Q: And the “growth inhibition accompanying the decrease in fluorescence” value (E. coli SH399)?
A: accompanied by growth inhibition

From US10365269B2, “System and methods for detecting ribosome inhibition” (priority 2015, dated 2019)
